Structures can show the parent of a compound that is named as a salt.
Tests used:
[1] = tested on: Lipopolysaccharide (LPS)-induced lethal sepsis; parameters: species or system ICR mice; details: mouse, in vivo
[2] = tested on: experimental sepsis models; details: reported in literature; cited from earlier work

Molecule: CN(C(=O)NCc1cccc(C(F)(F)F)c1)[C@@H]1CC[C@@]2(O)[C@H]3Cc4ccc(O)c5c4[C@@]2(CCN3CC2CC2)[C@H]1O5 [Compound 3, 17-cyclopropylmethyl-3,14β-dihydroxy-4,5α-epoxy-6β-(N-methyl-N′-3-trifluoromethylbenzylureido)morphinan tartaric acid salt]
- survival rate at 31 hours after administration of LPS [1]: 70.0%

Molecule: CN1CC[C@]23c4c5ccc(O)c4O[C@H]2[C@@H](O)C=C[C@H]3[C@H]1C5 [morphine]
- survival rate of experimental sepsis models [2]: decrease survival rate

Molecule: (D)Phe-(D)Phe-(D)Nle-(D)Arg-NH2
- survival rate at 24 hours after administration of LPS [1]: 66.7%

Molecule: C=CCN1CC[C@]23c4c5ccc(O)c4O[C@H]2C(=O)CC[C@@]3(O)[C@H]1C5 [naloxone]
- fever of experimental sepsis models [2]: suppresses fever

Molecule: CN(C(=O)/C=C/c1ccoc1)[C@@H]1CC[C@@]2(O)[C@H]3Cc4ccc(O)c5c4[C@@]2(CCN3CC2CC2)[C@H]1O5.Cl [Compound 1, (−)-17-(cyclopropylmethyl)-3,14β-dihydroxy-4,5α-epoxy-6 [N-methyl-trans-3-(3-furyl)acrylamide]morphinan hydrochloric acid salt]
- survival rate after 48 hours [1]: 40%
- survival rate at 24 hours after administration of LPS [1]: 80%
- survival rate of sepsis model animals (FIG. 1) [1]: increases the survival rate
